Assay results taken from US12054660B2, “Compound, composition, cured substance, optically anisotropic body, optical element, and light guide element” (FUJIFILM Corporation, priority 2021, dated 2024).

Key:
Assay type in all cases: physicochemical
[1] = Evaluation of light resistance of optically anisotropic layer; conditions: rate of change in Re of layer (25 parts compound/75 parts L-1) after xenon irradiation 50 hours, 63° C., 50% RH, oxygen-blocking
Description: (§1) As shown below, the durability of the optically anisotropic layer produced using the composition containing each of the compounds A-1 and A-3 to A-20, and the compounds RA-1 and RA-2 was evaluated.
(§2) A coating composition having the following composition was prepared and applied by spin coating onto a rubbing-treated glass attached with an alignment film.
(§3) The polymerizable liquid crystal compound L-1 is a mixture obtained by mixing at a ratio of the following L-1-1/L-1-2/L-1-3=84/14/2 (in terms of mass ratio).
The produced optically anisotropic layers for light resistance/durability tests were irradiated with light using a Super Xenon Weather Meter SX75 manufactured by Suga Test Instruments Co., Ltd. Using KU-1000100 manufactured by King Seisakusho Co., Ltd. as an ultraviolet ray cut filter, irradiation with 5 million 1× of light was carried out for 50 hours under the oxygen-blocking conditions to carry out a light resistance test. The temperature of the specimen to be tested (the temperature inside the test device) was set to 63° C. The relative humidity in the test device was 50% RH.
The Re of the optically anisotropic layer before and after the light resistance test was measured, the light resistance in a case where the rate of change in Re described below was less than 10% was evaluated as A, and the light resistance in a case where the rate of change in Re was 10% or more was evaluated as B. The smaller the rate of change in Re, the more excellent the light resistance.
(§4) Re is an in-plane retardation. Rate of change in Re (%)=[100×{|(Re after test)−(Re before test)|}/(Re before test)]
(§5) Re was measured with Axoscan manufactured by Axometrics, Inc. at a wavelength of 550 nm, and the measurement temperature was set to room temperature.

[2] = Evaluation of solubility in methyl ethyl ketone; conditions: precipitation concentration in methyl ethyl ketone at room temperature (25° C.)
Description: The solubility of each of the compounds of Examples and Comparative Examples (the compounds A-1, A-3 to A-20, and the compounds RA-1 and RA-2) in methyl ethyl ketone was evaluated. A solution in which the compound was ultrasonically dissolved or dissolved by heating was produced.

[3] = Evaluation of liquid crystallinity (hot stage, polarization microscope); set-up: key: A case of having liquid crystallinity was evaluated as A; a case of having no liquid crystallinity was evaluated as B; conditions: heated on a hot stage
Excerpt: As a specific observation method, optical anisotropy and fluidity derived from the liquid crystal phase can be checked by carrying out an observation under a polarization microscope while heating or lowering the temperature of the compound with a hot stage or the like.
The respective compounds of Examples and Comparative Examples (the compounds A-1, A-3 to A-20, and the compounds RA-1 and RA-2) were heated on a hot stage and observed with a polarization microscope, and the phase transition temperature was measured to evaluate the presence or absence of liquid crystallinity. A case of having liquid crystallinity was evaluated as A, and a case of having no liquid crystallinity was evaluated as B. The results are shown in Table 1.

[4] = Evaluation of durability (moisture-heat resistance test) of optically anisotropic layer; conditions: rate of change in Re of layer (25 parts compound/75 parts L-1) after 136 hours at 100° C., 95% RH
Description: as §1, §2, §3, §4, §5
The produced optically anisotropic layer was allowed to be left for 136 hours at 100° C. and a relative humidity of 95% RH, whereby a moisture-heat resistance test was carried out. The rate of change in Re before and after the durability test was evaluated, the durability in a case where the rate of change in Re was less than 10% was evaluated as A, and the durability in a case where the rate of change in Re was 10% or more was evaluated as B. The smaller the rate of change in Re, the more excellent the durability.

[5] = Measurement of Δn (refractive index anisotropy), wedge-shaped liquid crystal cell; conditions: 550 nm, 30° C. or lower limit temperature of nematic phase+0 to 10° C.; some extrapolated from 1/2 mixture with L-1-1
Description: The Δn of each of the compounds of Examples and Comparative Examples (the compounds A-1, A-3 to A-20, and the compounds RA-1 and RA-2), which are the compounds to be measured, was measured by a method using a wedge-shaped liquid crystal cell described on page 202 in the Liquid crystal handbook (edited by the liquid crystal handbook editorial board, published by Maruzen Co., Ltd., 2000). An was defined as a measured value at a wavelength of 550 nm at 30° C. or the lower limit temperature of the nematic phase+0° C. to 10° C. In a case of a compound which is liable to crystallize or a compound having no liquid crystallinity, evaluation was carried out using a mixture thereof with the other liquid crystal compound, and Δn was estimated from the extrapolated value of the measured value thereof. The following L-1-1 was used as the other liquid crystal compound. As the above mixture, a mixture obtained by mixing at a ratio of the compound to be measured/the L-1-1=1/2 (in terms of mass ratio) was used.
A case where Δn was 0.35 or more was evaluated as A, a case where Δn was 0.32 or more and less than 0.35 was evaluated as B, a case where Δn was 0.30 or more and less than 0.32 was evaluated as C, and a case where Δn was less than 0.30 was evaluated as D. The results are shown in Table 1.

Liquid crystallinity [3] | Compound | Light resistance [1] | Solubility [2] | Durability [4] | Δn [5]
A | C=CC(=O)OCCSc1ccc(C#Cc2ccc(OCc3ccc(C#Cc4ccc(SCCOC(=O)C=C)cc4)s3)c(C(=O)OC)c2)cc1 [Compound A-16] | B (the light resistance in a case where the rate of change in Re was 10% or more was evaluated as B) | A (the solubility in a case where the precipitation concentration was 10% by mass or more was evaluated as A) | A (the durability in a case where the rate of change in Re was less than 10% was evaluated as A) | A (A case where Δn was 0.35 or more was evaluated as A)
A | C=CC(=O)OCCSc1ccc(C#Cc2ccc(COc3ccc(OCc4ccc(C#Cc5ccc(SCCOC(=O)C=C)cc5)cc4)c(C(=O)OC)c3)cc2)cc1 [Compound A-14] | A (the light resistance in a case where the rate of change in Re described below was less than 10% was evaluated as A) | B (the solubility in a case where the precipitation concentration was less than 10% by mass was evaluated as B) | A (the durability in a case where the rate of change in Re was less than 10% was evaluated as A) | A (A case where Δn was 0.35 or more was evaluated as A)
